Assay results published in patent US20250281449A1, “NITROGEN-CONTAINING ANALOGS OF SALINOMYCIN FOR USE IN MULTIPLE MYELOMA (MM)” (Centre National de la Recherche Scientifique, priority 2021, published 2025).

Assays:
Assay type in all cases: cell-based, human
[1] = test system: XG-1, XG-7 and OPM-2 cell lines; assay: Apoptosis induction (Annexin V staining or PARP-cleavage, flow cytometry); settings: IC50 of ironomycin, 72H
Method: XG-1, XG-7 and OPM-2 cell lines were treated with IC50 of ironomycin during 72H. Apoptosis induction was monitored by Annexin V staining (XG-1 and XG-7) or PARP-cleavage and analyzed by flow cytometry (A).
(§1) Annexin V-PE staining for apoptosis analysis was performed using the “PE Annexin V Apoptosis Detection Kit I” (559763, Becton Dickinson).
The cell cycle progression was studied by flow cytometry using the Apoptosis, DNA Damage, and Cell Proliferation Kit (562253, Becton Dickinson). Briefly, cells were labeled with bromodeoxyuridine (BrdU), an analog of the DNA precursor thymidine that can be incorporated into newly synthesized DNA and detected with an antibody against BrdU to measure cell proliferation. After this labeling, the cells were fixed, permeabilized and treated with DNase to expose the BrdU epitopes. Following this treatment, cells were simultaneously stained with fluorochrome-labeled anti-BrdU, anti-cleaved Poly A DP-ribose polymerase 1 (PARP), anti-H2AX phosphorylated at serine 139. They were also stained with DAPI to determine DNA content. Finally, cells were resuspended in staining buffer and analyzed by flow cytometry (Fortessa, Becton Dickinson).

Phospho-H2A.X (S139) = assay: DNA damage response, Phospho-H2A.X (S139) western blot; settings: IC50 and 200 nM, 24H
Method: Cells were treated with iron chelators (80 μM Deferasirox), and Ironomycin (IC50 and 200 nM) during 24H. Protein levels of Phospho-H2A.X (S139) were analyzed by western blot and normalized by the histone 3 protein level.
(§2) The total cell lysates were obtained with RIPA 1× lysis buffer (#9806, Cell Signaling®) according with the supplier recommendations.
(§3) Protein lysates migrate on 10% polyacrylamide gel (NP-0301, Novex, Life Technologies®), in MOPS 1× running buffer (NP0001, Novex, Life Technologies®) or MES 1× running buffer NP-0002, Novex, Life Technologies®) and proteins are transferred to nitrocellulose membrane (1B301001, I-Blot Transfert Starck, NuPAGE, Life Technologies®). The primary antibodies mouse-anti-phospho-Histone H2A.X (Ser139) clone JBW301 ( 1/1000, Merck Millipore), anti-H3K36me3 (#ab9050, abcam®), anti-H3K27me3 (#9733, Cell Signaling®), anti-MMSET (#65127, Cell Signaling® et ab75359, abcam), anti-MYC (#5605, Cell Signaling®) were incubated in TBS-Tween 20 0.1% (Tris-Buffered Saline, pH 7.4) with 5% non-fat milk or Bovine serum albumin (Sigma-Aldrich, A7906). Protein levels are objectified by labeling with an anti-α-tubulin mouse monoclonal antibody (Sigma, T9026, St Louis, MO, USA 1/1000) or anti-Histone 3 (ab18521, abcam). […] Quantification of protein levels was performed with Image J® software (National Institutes of Health, Bethesda, MD, USA).

XG-7 and OPM-2 cell line = assay: Apoptosis with iron supplementation (FeCl3), Annexin V-PE; settings: 80 μM deferasirox or 100 nM Ironomycin, 4 hours then 72H with FeCl3 100 μM
Method: XG-7 and OPM-2 cell line was pre-incubated with or without 80 μM of deferasirox or 100 nM of Ironomycin, for 4 hours followed by 72H incubation in presence or absence of FeCl3 (100 μM). Apoptosis was assessed using Annexin V-PE staining by flow cytometry.
as §1

MYC = assay: Western blot of MYC protein level; settings: 24H
Method: Cells were treated with iron chelators (80 μM Deferasirox), and Ironomycin (IC50 and 200 nM) during 24H. Protein levels of MMSET (isoforms I and II), MYC, H3K36me3 and H3K27me3 were analyzed by western blot. MMSET (isoforms I and II) and MYC signal were normalized by α-tubulin protein level, H3K36me3 and H3K27me3 signal were normalized by total histone 3 protein level.
as §2
as §3, with “A7906).” for “A7906). Protein levels are objectified by labeling with an anti-α-tubulin mouse monoclonal antibody (Sigma, T9026, St Louis, MO, USA 1/1000) or anti-Histone 3 (ab18521, abcam).”

XG-7 cells = assay: Drug combination concentration matrix, viability by ATP quantification, Bliss synergy
Method: XG-7 or XG2 WT (XG2 neg) or XG2 melphalan resistant (XG2 Melph R) cell lines were respectively treated with increasing concentrations of ironomycin combined with melphalan during 96 h and cell viability was tested by ATP quantification to obtain the viability matrix. The synergy matrix was calculated as described in Material and Methods.
XG-7cells were treated with increasing concentrations of ironomycin combined with lenalidomide during 96 h and cell viability was tested by ATP quantification to obtain the viability matrix. The synergy matrix was calculated as described in Material and Methods.
XG-7cells were treated with increasing concentrations of ironomycin combined with pomalidomide during 96 h and cell viability was tested by ATP quantification to obtain the viability matrix. The synergy matrix was calculated as described in Material and Methods.
XG-7cells were treated with increasing concentrations of ironomycin combined with carfilzomib during 96 h and cell viability was tested by ATP quantification to obtain the viability matrix. The synergy matrix was calculated as described in Material and Methods.
XG-7cells were treated with increasing concentrations of ironomycin combined with AZD-5991 during 96 h and cell viability was tested by ATP quantification to obtain the viability matrix. The synergy matrix was calculated as described in Material and Methods
HMCL cell lines were cultured for 4 days in 96-well flat-bottom microtiter plates in RPMI 1640 medium or DMEM medium, 10% or 20% FCS (control medium) in the presence of various compounds. The number of viable cells in culture was determined using the Cell Titer-Glo Luminescent Cell Viability Assay from Promega, Madison, WI, USA using a Centro LB 960 luminometer (Berthold Technologies, Bad Wildbad, Germany).
The interaction between the drugs tested in vitro was investigated with a concentration matrix test, in which increasing concentration of each single drug were assessed with all possible combinations of the other drugs. For each combination, the percentage of expected growing cells in the case of effect independence was calculated according to the Bliss equation (Combes et al., 2019): […]
where fuC is the expected fraction of cells unaffected by the drug combination in the case of effect independence, and fuA and fuB are the fractions of cells unaffected by treatment A and B, respectively. The difference between the fraction of living cells in the cytotoxicity test and the fuC value was considered as an estimation of the interaction effect, with […]. Synergy matrix was built with the R package “SynergyFinder”.

C#CCN[C@@H]1C=C[C@]2(O[C@H]([C@@H](CC)C(=O)[C@@H](C)[C@@H](O)[C@H](C)[C@@H]3O[C@@H]([C@@H](CC)C(=O)O)CC[C@@H]3C)[C@@H](C)C[C@H]2C)O[C@@]12CC[C@@](C)([C@H]1CC[C@](O)(CC)[C@H](C)O1)O2 [Ironomycin]
apoptosis induction [1]: induces apoptosis
DNA double strand breaks (Phospho-H2A.X (S139)): DNA double strand breaks
effect of iron supplementation on induced apoptosis (XG-7 and OPM-2 cell line): not reversed by Iron supplementation
effect of iron supplementation on induced apoptosis (XG-7 and OPM-2 cell line; listed as ironomycin): did not affect
MYC protein expression (MYC): significant downregulation
interaction effect, combined with AZD5991 (XG-7 cells; XG-7, 96 h): additive effect
interaction effect, combined with Lenalidomide (XG-7 cells; XG-7, 96 h): synergy
interaction effect, combined with Pomalidomide (XG-7 cells; XG-7, 96 h): synergy
interaction effect, combined with carfilzomib (XG-7 cells; XG-7, 96 h): additive effect
interaction effect, combined with melphalan (XG-7 cells; XG-7 or XG2 WT, 96 h): synergistic effect
